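1) Cells in 96-well plates. 2) Compound, 48 h, 5 concentrations. 3) Linear interpolation between surrounding doses. 4) Unreached endpoint = highest concentration. At the GI50, growth is halved.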 Activity calls are given as the source filed them. No stated cut-off is given here; in the data, active = GI50 up to about 1.1 µM and inactive = higher.
Experiments:
Experiment in all cases: NCI anticancer screen, dose series, 48 h
LOX IMVI = test system: LOX IMVI
A549 = test system: A549
SF-295 = test system: SF-295
HT-29 = test system: HT-29
UO-31 = test system: UO-31
OVCAR-8 = test system: OVCAR-8
SNB-19 = test system: SNB-19
SK-MEL-28 = test system: SK-MEL-28
HCT-15 = test system: HCT-15
SF-268 = test system: SF-268
SN12C = test system: SN12C
HCT-116 = test system: HCT-116
SR = test system: SR
EKVX = test system: EKVX
NCI-H460 = test system: NCI-H460
MOLT-4 = test system: MOLT-4
TK-10 = test system: TK-10
A498 = test system: A498
HL-60 = test system: HL-60
DU-145 = test system: DU-145

Structure (SMILES)	GI50 (LOX IMVI)	GI50 (A549)	GI50 (SF-295)	GI50 (HT-29)	GI50 (UO-31)	GI50 (OVCAR-8)	GI50 (SNB-19)	GI50 (SK-MEL-28)	GI50 (HCT-15)	GI50 (SF-268)	GI50 (SN12C)	GI50 (HCT-116)	GI50 (SR)	GI50 (EKVX)	GI50 (NCI-H460)	GI50 (MOLT-4)	GI50 (TK-10)	GI50 (A498)	GI50 (HL-60)	GI50 (DU-145)
Cc1ccccc1NC(=O)CC(=O)N1N=C(N2c3ccccc3Sc3ccccc32)CC1c1ccccc1 (configuration not stated)	> 100 µM (inactive)	> 100 µM (inactive)	> 100 µM (inactive)	> 100 µM (inactive)	> 100 µM (inactive)	> 100 µM (inactive)	> 100 µM (inactive)	> 100 µM (inactive)	> 100 µM	> 100 µM (inactive)	> 100 µM (inactive)	> 100 µM (inactive)	> 100 µM (inactive)	> 100 µM (inactive)	> 100 µM (inactive)	> 100 µM (inactive)	> 100 µM (inactive)	> 100 µM (inactive)	–	–
Fc1ccccc1C1SCc2nc3cc4ccccc4cc3n21 (configuration not stated)	–	64.9 µM (inactive)	34.4 µM (inactive)	43.9 µM (inactive)	> 100 µM (inactive)	36.6 µM (inactive)	32.5 µM (inactive)	54.3 µM (inactive)	94.8 µM	45.3 µM (inactive)	36.1 µM (inactive)	24.9 µM (inactive)	–	67.6 µM (inactive)	26.5 µM (inactive)	> 100 µM (inactive)	63.8 µM (inactive)	–	13.2 µM (inactive)	60.8 µM (inactive)
C=C/C=C/NC(=O)OCc1ccccc1	> 100 µM (inactive)	> 100 µM (inactive)	> 100 µM (inactive)	> 100 µM (inactive)	> 100 µM (inactive)	> 100 µM (inactive)	> 100 µM (inactive)	> 100 µM (inactive)	–	> 100 µM (inactive)	> 100 µM (inactive)	> 100 µM (inactive)	98.9 µM (inactive)	> 100 µM (inactive)	> 100 µM (inactive)	> 100 µM (inactive)	> 100 µM (inactive)	–	> 100 µM (inactive)	–
CC(=O)NC1=C(NCC(C)(C)C)C(=O)c2ccccc2C1=O	66.8 µM (inactive)	> 100 µM (inactive)	> 100 µM (inactive)	> 100 µM (inactive)	46.3 µM (inactive)	70.6 µM (inactive)	> 100 µM (inactive)	> 100 µM (inactive)	55.3 µM	> 100 µM (inactive)	> 100 µM (inactive)	33.7 µM (inactive)	> 100 µM (inactive)	76.9 µM (inactive)	98.4 µM (inactive)	57.3 µM (inactive)	> 100 µM (inactive)	–	32.1 µM (inactive)	–
Cn1c(=O)c2c(nc(N/N=C3/SCC(=O)N3Cc3ccccc3)n2C)n(C)c1=O	–	89.5 µM (inactive)	> 100 µM (inactive)	48.4 µM (inactive)	> 100 µM (inactive)	> 100 µM (inactive)	> 100 µM (inactive)	> 100 µM (inactive)	85.5 µM	60.7 µM (inactive)	> 100 µM (inactive)	> 100 µM (inactive)	–	94.2 µM (inactive)	38 µM (inactive)	–	> 100 µM (inactive)	> 100 µM (inactive)	–	> 100 µM (inactive)
[O-][n+]1ccccc1S [PYRITHIONE ZINC]	1.4 µM (inactive)	1.55 µM (inactive)	4.46 µM (inactive)	0.176 µM (active)	2.43 µM (inactive)	3.01 µM (inactive)	5.2 µM (inactive)	1.97 µM (inactive)	0.577 µM	1.03 µM (active)	1.87 µM (inactive)	0.5 µM (active)	0.168 µM (active)	2.98 µM (inactive)	1.63 µM (inactive)	0.0973 µM (active)	10.1 µM (inactive)	0.796 µM (active)	0.232 µM (active)	–
Cn1cnc([N+](=O)[O-])c1Sc1nc2cc([N+](=O)[O-])ccc2[nH]1	24.7 µM (inactive)	29.3 µM (inactive)	> 100 µM (inactive)	36.4 µM (inactive)	19.1 µM (inactive)	14.7 µM (inactive)	42.3 µM (inactive)	15.3 µM (inactive)	13.5 µM	19.9 µM (inactive)	> 10 µM (inactive)	23.4 µM (inactive)	9.29 µM (inactive)	10.5 µM (inactive)	36.1 µM (inactive)	14.8 µM (inactive)	19.5 µM (inactive)	29.6 µM (inactive)	14 µM (inactive)	–
CC1CC2=Nc3ccccc3NC(c3ccccc3)C2=C(O)O1 (configuration not stated)	> 100 µM (inactive)	> 100 µM (inactive)	–	> 100 µM (inactive)	> 100 µM (inactive)	> 100 µM (inactive)	> 100 µM (inactive)	> 100 µM (inactive)	> 100 µM	> 100 µM (inactive)	> 100 µM (inactive)	> 100 µM (inactive)	63.1 µM (inactive)	> 100 µM (inactive)	> 100 µM (inactive)	> 100 µM (inactive)	> 100 µM (inactive)	> 100 µM (inactive)	> 100 µM (inactive)	–
Cc1ccccc1NC(=O)C(=O)C1CN(c2ccccc2)N=C1N (configuration not stated)	–	> 100 µM (inactive)	–	> 100 µM (inactive)	> 100 µM (inactive)	> 100 µM (inactive)	> 100 µM (inactive)	> 100 µM (inactive)	–	> 100 µM (inactive)	> 100 µM (inactive)	> 100 µM (inactive)	> 100 µM (inactive)	> 100 µM (inactive)	> 100 µM (inactive)	> 100 µM (inactive)	–	> 100 µM (inactive)	> 100 µM (inactive)	–
CC(=O)OC(C)(C)C[N+](=O)[O-]	> 100 µM (inactive)	> 100 µM (inactive)	> 100 µM (inactive)	> 100 µM (inactive)	> 100 µM (inactive)	> 100 µM (inactive)	> 100 µM (inactive)	> 100 µM (inactive)	> 100 µM	> 100 µM (inactive)	> 100 µM (inactive)	> 100 µM (inactive)	> 100 µM (inactive)	> 100 µM (inactive)	> 100 µM (inactive)	> 100 µM (inactive)	> 100 µM (inactive)	–	26 µM (inactive)	–
CCCc1c(C(=O)OCC)[nH]c(-c2ccc(-c3[nH]c(C(=O)OCC)c(CCC)c3C(=O)OCC)o2)c1C(=O)OCC	> 100 µM (inactive)	> 100 µM (inactive)	> 100 µM (inactive)	> 100 µM (inactive)	> 100 µM (inactive)	> 100 µM (inactive)	> 100 µM (inactive)	> 100 µM (inactive)	> 100 µM	> 100 µM (inactive)	> 100 µM (inactive)	> 100 µM (inactive)	> 100 µM (inactive)	> 100 µM (inactive)	> 100 µM (inactive)	> 100 µM (inactive)	> 100 µM (inactive)	> 100 µM (inactive)	> 100 µM (inactive)	–
CN(CCO)c1nc(=O)c2c([nH]1)CCC2	> 100 µM (inactive)	> 100 µM (inactive)	> 100 µM (inactive)	> 100 µM (inactive)	> 100 µM (inactive)	> 100 µM (inactive)	> 100 µM (inactive)	> 100 µM (inactive)	> 100 µM	> 100 µM (inactive)	> 100 µM (inactive)	> 100 µM (inactive)	> 100 µM (inactive)	> 100 µM (inactive)	> 100 µM (inactive)	> 100 µM (inactive)	> 100 µM (inactive)	–	> 100 µM (inactive)	–
